US20180002371A1 (BAYLOR COLLEGE OF MEDICINE, priority 2014, published 2018)

Experiments:
Female ICR mice = assay: Electrocardiogram (EKG) measurements in mice; type: in vivo, mouse
Procedure: Electrocardiogram (EKG) Measurements. […] Non-invasive EKG recordings were made using the ECGenie system (Mouse Specifics) at several subsequent time points. […] Data acquisition was performed using the program LabChart 6 (ADlnstruments). Individual EKG signals were then evaluated using e-MOUSE physiologic waveform analysis software (Mouse Specifics) as previously described.

mouse heart tissues = assay: H-E staining of mouse heart tissues; type: in vivo; settings: 24 hours after drug administration
[1] = tested on: MDA-MB-231-LM3-3 orthotopic breast tumors; assay: Therapeutic efficacy in an orthotopic TNBC mouse model; type: in vivo; settings: 0.75 mg/kg three times per week
Procedure: Therapeutic Efficacy of 3-phospho-bufalin in an Orthotopic TNBC Mouse Model. To establish orthotopic breast tumors, 0.75×10^6 MDA-MB-231-LM3-3 cells were injected into one of the second mammary fat pads of nude mice (Charles River Laboratories, female, 6-7 weeks, n=6/group). When tumors became palpable, generally 14 days after injection, mice were randomized into two groups. The treatment group was then injected with phospho-bufalin subcutaneously (0.75 mg/kg per dose, 3 doses per week) for 3 weeks while the control group received PBS. Tumor lengths and widths were measured three times per week. Tumor sizes were calculated by: (length×width×width)/2.
The therapeutic efficacy of P-Buf was tested in an orthotopic TNBC model. LM3-3 cells (0.75×10^6 cells per mouse) were inoculated into the second pair of mammary gland fat pads of nude mice (female, […]). The mice were randomized into two groups based on luciferase imaging (n=6 per group). Fourteen days after tumor inoculation, the treatment group began receiving P-Buf (0.75 mg/kg) three times per week while the control group received PBS. Tumor volumes were measured three times per week. […] At day 31, the mice were euthanized and tumors were harvested. The tumors derived from PBS treated mice weighed ˜2.4 times more than those of the experimental treatment group (FIGS. 8B and C).

[2] = Pharmacokinetic studies of bufalin and 3-phospho-bufalin; settings: p-buf 0.5 mg/kg i.p.
Procedure: Five quality control (QC) samples at 10 ng/mL, 20 ng/mL, 500 ng/mL, 4000 ng/mL and 8000 ng/mL of plasma were prepared independently of those used for the calibration curves. QC samples were prepared on the day of analysis in the same way as the calibration standards.
Standards, QC samples, and unknown samples were injected into a LC/MS/MS machine for quantitative analysis. […] For i.p. injected P-Buf, the PK trace was fittedto a non-compartmental extravascular model.
P-Buf was dissolved in PBS and administered intraperitoneally at the same dose.

HCC1143 = assay: Cell cytotoxicity assay (MTT), HCC1143; type: cell-based; settings: HCC1143, 72 h, read-out: IC50 cell viability
Procedure: (§1) Cell Culture. Triple negative breast cancer (TNBC) cell lines HCC1143, SUM149PT, SUM159PT, and MDA-MB-231 were obtained from ATCC. The MDA-MB-231-LM3-3 (LM3-3) cell line was developed from lung metastasis derived from a MDA-MB-231-LM2 xenograft tumor in the mammary fat pad of a SCID mouse.
(§2) The HCC1143 cell line was grown in RPMI-1640 medium, SUM149PT and SUM159PT cell lines were grown in F-12 medium, and MDA-MB-231 cells were grown in DMEM. All culture media were supplemented with 10% fetal bovine serum. All cell lines were grown in a humidified incubator containing 5% CO2 at 37° C. Primary hepatocytes were isolated from an adult male mouse (C57BL) by collagenase perfusion (0.8 mg/mL; Sigma-Aldrich, C5138) through the portal vein and maintained in M199 medium with 10% FBS. The viability of freshly isolated hepatocytes was verified using Trypan blue staining.
(§3) Cell Cytotoxicity Assays. TNBC cells (5000 to 7000 cells per well) were seeded in 96-well plates in medium supplemented with 10% FBS. […] Cell viabilities relative to untreated control cells were plotted using Graphpad Prism.

SUM149PT = assay: Cell cytotoxicity assay (MTT), SUM149PT; type: cell-based; settings: 72 h, read-out: IC50 cell viability
Procedure: as §1, §2, §3

SUM159PT = assay: Cell cytotoxicity assay (MTT), SUM159PT; type: cell-based; settings: 72 h, read-out: IC50 cell viability
Procedure: as §1, §2, §3

MDA-MB-231 = assay: Cell cytotoxicity assay (MTT), MDA-MB-231; type: cell-based; settings: MDA-MB-231, 72 h, read-out: IC50 cell viability
Procedure: as §1, §2, §3

MDA-MB-231-LM3-3 = assay: Cell cytotoxicity assay (MTT), MDA-MB-231-LM3-3; type: cell-based; settings: MDA-MB-231-LM3-3, 72 h, read-out: IC50 cell viability
Procedure: as §1, §2, §3

SRC-3 [3] = target: T1, SRC-3 (Homo sapiens, UniProt Q9Y6Q9); assay: Western blotting of SRC-3 protein in TNBC cells; type: cell-based
T1 construct: endogenous in cells; host or cells: HCC1143, SUM149PT, SUM159PT, MDA-MB-231, MDA-MB-231-LM3-3
T1 sequence (Q9Y6Q9 whole entry): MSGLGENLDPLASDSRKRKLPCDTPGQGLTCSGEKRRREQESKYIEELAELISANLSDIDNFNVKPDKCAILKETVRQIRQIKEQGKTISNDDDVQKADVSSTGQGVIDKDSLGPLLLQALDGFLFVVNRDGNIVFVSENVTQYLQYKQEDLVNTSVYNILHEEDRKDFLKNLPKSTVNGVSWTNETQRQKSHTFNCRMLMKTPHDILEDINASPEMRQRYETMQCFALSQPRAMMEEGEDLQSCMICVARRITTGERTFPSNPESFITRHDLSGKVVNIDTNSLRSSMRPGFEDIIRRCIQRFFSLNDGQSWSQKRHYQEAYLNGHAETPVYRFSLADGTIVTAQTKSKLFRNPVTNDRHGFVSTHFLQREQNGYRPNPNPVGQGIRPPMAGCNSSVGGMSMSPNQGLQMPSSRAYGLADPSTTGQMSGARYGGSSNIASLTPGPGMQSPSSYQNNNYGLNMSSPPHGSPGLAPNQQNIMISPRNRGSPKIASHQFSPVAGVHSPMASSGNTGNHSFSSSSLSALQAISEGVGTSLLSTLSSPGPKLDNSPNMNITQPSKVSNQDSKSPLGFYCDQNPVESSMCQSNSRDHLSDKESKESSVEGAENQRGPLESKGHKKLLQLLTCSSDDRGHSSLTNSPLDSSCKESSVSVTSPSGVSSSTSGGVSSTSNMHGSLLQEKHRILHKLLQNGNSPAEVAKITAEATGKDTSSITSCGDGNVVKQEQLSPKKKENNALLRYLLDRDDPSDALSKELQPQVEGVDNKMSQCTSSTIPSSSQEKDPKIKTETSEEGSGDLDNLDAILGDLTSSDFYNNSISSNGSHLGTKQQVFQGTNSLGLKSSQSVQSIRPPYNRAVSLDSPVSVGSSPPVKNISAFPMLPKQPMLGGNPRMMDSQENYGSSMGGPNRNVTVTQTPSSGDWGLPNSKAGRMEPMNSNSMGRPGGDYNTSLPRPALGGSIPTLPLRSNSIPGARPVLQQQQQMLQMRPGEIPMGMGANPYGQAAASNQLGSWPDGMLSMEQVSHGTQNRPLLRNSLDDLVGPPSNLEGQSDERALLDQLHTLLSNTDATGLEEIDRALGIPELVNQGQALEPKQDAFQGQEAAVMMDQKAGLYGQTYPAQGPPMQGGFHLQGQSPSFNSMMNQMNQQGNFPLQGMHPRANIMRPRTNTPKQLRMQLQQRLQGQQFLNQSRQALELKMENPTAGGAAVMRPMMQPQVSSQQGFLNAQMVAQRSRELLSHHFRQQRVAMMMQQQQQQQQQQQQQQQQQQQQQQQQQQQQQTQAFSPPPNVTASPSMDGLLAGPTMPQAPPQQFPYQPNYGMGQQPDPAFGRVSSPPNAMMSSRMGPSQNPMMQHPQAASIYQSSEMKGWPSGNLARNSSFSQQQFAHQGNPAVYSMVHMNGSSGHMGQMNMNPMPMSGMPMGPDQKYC
Procedure: Western Blotting Assays. Cell lysate was prepared by adding RIPA buffer (containing 10 mM Tris-Cl pH 8.0, 1 mM EDTA, 0.5 mM EGTA, 1% Triton X-100, 0.1% sodium deoxycholate, 0.1% SDS, 140 mM NaCl, and protease inhibitors) to cells kept on ice. After spinning samples at 16,000 rpm for 15 minutes at 4 ° C., insoluble materials in the collected cell lysate were precipitated and discarded. The total protein concentration was measured using a Bradford protein assay. An equivalent mass of each sample was loaded and electrophoretically separated by 10% SDS-PAGE. Then, proteins on PAGE the gel were transferred to a PVDF membrane. Anti-SRC-3 (Cell Signaling Technology Co. Cat#2126) and anti-actin (Cell Signaling Technology Co. Cat#8457) were used to probe the membranes.

LM3-3 cells [4] = assay: Single cell motility assay; type: cell-based
Procedure: Single Cell Motility Assays. Microtiter 96-well plates pre-coated with collagen V were covered with beads provided by a Cell Motility HCS kit (Thermo Scientific Co. Cat# K0800011). LM3-3 cells (500) were seeded in each bead-coated well. […] The cell track areas (pixels) were counted using Image J. To attain statistical significance, more than 50 cell tracks in each sample were counted.

LM3-3 cells [5] = assay: Bufalin and gefitinib cotreatment, cell viability; type: cell-based
SRC-3 [6] = target: T1, SRC-3; settings: receptor interacting domain; cited from earlier work
cancer cells = settings: cited from earlier work
[7] = 3-phospho-bufalin 7.5 mg/kg i.p., +10 min post-injection
[8] = 3-phospho-bufalin 7.5 mg/kg i.p., −5 min post-injection (baseline)
[9] = 3-phospho-bufalin 11.25 mg/kg i.p., +5 min post-injection
[10] = 3-phospho-bufalin 11.25 mg/kg i.p., +10 min post-injection
[11] = 3-phospho-bufalin 11.25 mg/kg i.p., +15 min post-injection
[12] = 3-phospho-bufalin 11.25 mg/kg i.p., −5 min post-injection (baseline)

In the case of `C[C@]12CC[C@H](OP(=O)(O)O)C[C@H]1CC[C@@H]1[C@@H]2CC[C@]2(C)[C@@H](c3ccc(=O)oc3)CC[C@]12O` [3-Phospho-Bufalin, 3-Phospho-bufalin], the “changes in EKG parameters” value (Female ICR mice; 7.5 mg/kg and 11.25 mg/kg i.p.) is reported as “no significant changes in EKG parameters were observed”, the HR (Female ICR mice; [7]) is reported as 788.7 ± 1.2 BPM and the QRS (Female ICR mice; [7]) is reported as 11.0 ± 0.1 ms. It also gave a QT (Female ICR mice; [7]) of 38.2 ± 0.9 ms, a QTc (Female ICR mice; [7]) of 43.8 ± 1.0 ms and an RR (Female ICR mice; [7]) of 76.1 ± 0.1 ms. The ST (Female ICR mice; [7]) was 27.6 ± 0.9 ms, the HR (Female ICR mice; [8]) was 754.7 ± 6.6 BPM and the QRS (Female ICR mice; [8]) was 10.6 ± 0.1 ms. The QT (Female ICR mice; [8]) was 40.2 ± 0.6 ms, the QTc (Female ICR mice; [8]) was 45.0 ± 0.5 ms and the RR (Female ICR mice; [8]) was 79.6 ± 0.7 ms. The ST (Female ICR mice; [8]) was 30.1 ± 0.7 ms, the HR (Female ICR mice; [9]) was 779.7 ± 1.5 BPM and the QRS (Female ICR mice; [9]) was 10.9 ± 0.1 ms. For the same compound, the QT (Female ICR mice; [9]) was 37.1 ± 0.3 ms, the QTc (Female ICR mice; [9]) was 42.3 ± 0.4 ms and the RR (Female ICR mice; [9]) was 77.0 ± 0.1 ms. For the same compound, the ST (Female ICR mice; [9]) was 26.7 ± 0.4 ms, the HR (Female ICR mice; [10]) was 761.3 ± 7.5 BPM and the QRS (Female ICR mice; [10]) was 11.1 ± 0.2 ms. It also gave a QT (Female ICR mice; [10]) of 38.1 ± 0.6 ms, a QTc (Female ICR mice; [10]) of 43.0 ± 0.6 ms and an RR (Female ICR mice; [10]) of 78.8 ± 0.8 ms. The ST (Female ICR mice; [10]) was 26.6 ± 0.5 ms, the HR (Female ICR mice; [11]) was 755.0 ± 1.0 BPM and the QRS (Female ICR mice; [11]) was 11.5 ± 0.1 ms. For the same compound, the QT (Female ICR mice; [11]) was 39.1 ± 0.9 ms, the QTc (Female ICR mice; [11]) was 43.9 ± 0.9 ms and the RR (Female ICR mice; [11]) was 79.5 ± 0.1 ms. It also gave an ST (Female ICR mice; [11]) of 28.1 ± 0.8 ms, an HR (Female ICR mice; [12]) of 798.0 ± 12.8 BPM and a QRS (Female ICR mice; [12]) of 10.6 ± 0.3 ms. It also gave a QT (Female ICR mice; [12]) of 39.1 ± 2.4 ms, a QTc (Female ICR mice; [12]) of 45.1 ± 2.9 ms and an RR (Female ICR mice; [12]) of 75.8 ± 0.2 ms. The ST (Female ICR mice; [12]) was 29.0 ± 2.2 ms, the “histological examination of cardiomyocytes” value (mouse heart tissues) was “little damage to cardiomyocytes” and the “tumor weight, PBS treated mice relative to treatment group” value ([1]; day 31) was about 2.4 times. The “TNBC tumor growth (tumor volume)” value ([1]; nude mice, LM3-3 tumors) was “can significantly inhibit TNBC tumor growth”, the AUCInf ([2]; mice) was 46 ± 18 nM·h and the AUClast/D ([2]; mice) was 0.075 ± 0.044 µM·kg·h/mg. The “conversion to parent bufalin in vivo” value ([2]; free bufalin detected in plasma) was “can be converted to parent bufalin in vivo”.

Work on `C[C@]12CC[C@H](O)C[C@H]1CC[C@@H]1[C@@H]2CC[C@]2(C)[C@@H](c3ccc(=O)oc3)CC[C@]12O` [Bufalin, bufalin] yielded an IC50 (HCC1143) of 0.0718 µM, an IC50 (SUM149PT) of under 0.02 µM and an IC50 (SUM159PT) of under 0.02 µM. The IC50 (MDA-MB-231) was under 0.02 µM, the IC50 (MDA-MB-231-LM3-3) was under 0.02 µM and the SRC-3 protein expression (SRC-3 [3]; 100 nM, HCC1143, SUM149PT, SUM159PT, MDA-MB-231, MDA-MB-231-LM3-3) was “downregulate SRC-3 protein expression”. For the same compound, the “SRC-3 protein level, dose dependence” value (SRC-3 [3]; MDA-MB-231-LM3-3) was “downregulated SRC-3 in MDA-MB-231-LM3-3 in a dose-dependent manner”, the “toxicity toward LM3-3 cells under motility assay conditions” value (LM3-3 cells [4]; 12 hour time point) was “minimal toxicity” and the “motility of LM3-3 cells” value (LM3-3 cells [4]; increasing concentrations of bufalin) was “decreased with increasing concentrations of bufalin”. For the same compound, the “synergy with gefitinib on cell viability” value (LM3-3 cells [5]; 5 or 10 nM bufalin with gefitinib, LM3-3 cells) was “synergize with gefitinib”, the “binding to SRC-3” value (SRC-3 [6]) was “directly binds to SRC-3 in its receptor interacting domain” and the IC50 values (cancer cells) was “low nM range”.

In the case of `COc1cc2ncnc(Nc3ccc(F)c(Cl)c3)c2cc1OCCCN1CCOCC1` [gefitinib], the “toxicity in LM3-3 cells” value (LM3-3 cells [5]; gefitinib alone, up to 20 μM) is reported as “minimal toxicity”.
